As a reminder, the IC50 is the point on the concentration scale where inhibition reaches its midpoint. Read a high IC50 as weaker potency.

Type in all cases: cell-based
Test [1] has as its target T1, human Nav1.7 (hNav1.7) (Homo sapiens, UniProt Q15858).
T1 construct: expressed in transfected cells
The experiment in a line: hNav1.7 slow inactivation block, automated patchclamp. Conditions: HEK 293F cells stably expressing hNav1.7, slow inactivation induced in approximately 50% of channels. (The patch-clamp technique gives a direct electrical read-out from membranes.)

Test [2] deals with T2, human Nav1.5 (hNav1.5) (Homo sapiens, UniProt Q14524).
T2 construct: expressed in transfected cells
Put plainly: hNav1.5 slow inactivation block, automated patchclamp. Conditions: HEK 293F cells stably expressing hNav1.5. The source says:
(§1) The generation of HEK 293F cell lines stably expressing human Nav1.7 (h Nav1.7), human Nav1.5 (hNav1.5) and rat Nav1.2 (r Nav1.2) was achieved by subcloning SCN9A, SCN5A, and SCN2A genes into inducible expression vectors followed by transfection into target cells using standard techniques. In the case of h Nav1.7, an expression vector encoding the human Navβ1 auxiliary subunit gene, SCN1B, was co-transfected with the expression vector bearing the SCN9A gene. Clones were selected using appropriate selection agents (0.3 mg/mL Zeocin and 0.8 mg/mL Geneticin) and maintained in Dulbecco's Modified Eagle medium, 10% fetal bovine serum, 1% non-essential amino acids to ˜80% confluence at 37° C. in a humidified incubator with 95% atmosphere and 5% CO2.
Inhibition of the TTX-resistant Nav1.5 sodium channel, a key cardiac ion channel, can have profound effects on the duration and amplitude of the cardiac action potential and can result in arrhythmias and other heart malfunctions. To assess the potential cardiac liability of compounds at an early stage in the drug discovery process, a Nav1.5 sodium channel screening assay can be performed on Molecular Device's PatchXpress™ automated electrophysiology platform. Under voltage-clamp conditions, Nav1.5 currents can be recorded from HEK cells expressing the human Nav1.5 channel in the absence and presence of increasing concentrations of the test compound to obtain an IC50 value. The external recording solution can contain (in mM): 90 TEACl, 50 NaCl, 1.8 CaCl, 1 MgCl2, 10 HEPES, 10 glucose, adjusted to pH 7.4 with TEA-OH and to 300 mOsm with sucrose (if necessary), while the internal patch pipette solution contained (in mM): 129 CsF, 2 MgCl2, 11 EGTA, 10 HEPES, 3 Na2ATP adjusted to pH 7.2 with CsOH and to 290 mOsm with sucrose (if necessary). Nav1.5 channel currents can be evoked using a cardiac action potential waveform at 1 Hz, digitized at 31.25 kHz and low-pass filtered at 12 kHz.
(§2) On the day of each experiment, cells that were grown to 80% confluence in a T75 flask were harvested for use on PatchXpress (Molecular Devices, CA, USA). Following a recovery period at 37° C. in a humidified incubator with 95% atmosphere and 5% CO2 in Dulbecco's Modified Eagle Medium, the media was replaced with an external recording solution containing (in mM): 90 TEACl, 50 NaCl, 1.8 CaCl2, 1 MgCl2, 10 HEPES, 10 glucose, adjusted to pH 7.4 with TEAOH and 300 mOsm with sucrose. The internal recording solution contained (in mM): 129 CsF, 2 MgCl2, 11 EGTA, 10 HEPES, 6 NaCl, 3 Na2ATP adjusted to pH 7.2 with CsOH and 280 mOsm with sucrose. The automated liquid handling facility of PatchXpress dispensed cells and added compound. Modulation of Nav1.7 channels by compounds was assessed by promoting the channels into the inactivated state using a conditioning voltage pulse of variable amplitude, followed by a brief hyperpolarizing pulse with a subsequent depolarized voltage step to measure the current amplitude in the presence and absence of compound.
In some cases, the potency of compounds was measured using either the Patchliner automated patch clamp platform (Nanion) or manual patch clamp techniques. Both approaches allowed the compounds to be characterized based upon the ability of a compound to modulate use- and/or state-dependence across human Nav1.7 (hNav1.7), human Nav1.5 (hNav1.5) and rat Nav1.2 (rNav1.2). The potency data is tabulated in Table 2 and is represented by six data fields. Three of the six fields represent potency data measured with the Patchliner automated platform under varying use- and state-dependent electrophysiology protocols similar to the PatchXpress protocols detailed above. […]

Test [3] addresses T2, human Nav1.5 (hNav1.5). The experiment in a line: hNav1.5 slow inactivation block, manual patchclamp. Particulars: HEK 293F cells stably expressing hNav1.5.
Description: as §1, with “CO2. […]” for “CO2.”
as §2
In some cases, the potency of compounds was measured using either the Patchliner automated patch clamp platform (Nanion) or manual patch clamp techniques. Both approaches allowed the compounds to be characterized based upon the ability of a compound to modulate use- and/or state-dependence across human Nav1.7 (hNav1.7), human Nav1.5 (hNav1.5) and rat Nav1.2 (rNav1.2). The potency data is tabulated in Table 2 and is represented by six data fields. Three of the six fields represent potency data measured with the Patchliner automated platform under varying use- and state-dependent electrophysiology protocols similar to the PatchXpress protocols detailed above. For example, the second data column describes the potency of compounds in their ability to block 50% of Nav1.7 channels when the channel is repetitively activated by depolarizing voltage potentials to induce slow inactivation in approximately 50% of channels (Table 2: h Nav1.7: IC50 Slow Inactivation Block, Automated Patchclamp). The next three data fields describe the data generated from manual patchclamp electrophysiology measurements using similar methods to those employed for automated patchclamp studies.

In test [4] the target is T1, human Nav1.7 (hNav1.7). Put plainly: hNav1.7 slow inactivation block, manual patchclamp. Particulars: HEK 293F cells stably expressing hNav1.7, slow inactivation induced in approximately 50% of channels.
Test [5] has as its target T3, rat Nav1.2 (rNav1.2) (Rattus norvegicus, UniProt P04775).
T3 construct: expressed in transfected cells
Put plainly: rNav1.2 slow inactivation block, manual patchclamp. Particulars: HEK 293F cells stably expressing rNav1.2.

Test [6] has as its target T3, rat Nav1.2 (rNav1.2). The experiment in a line: rNav1.2 slow inactivation block, automated patchclamp. Particulars: HEK 293F cells stably expressing rNav1.2.

T2 sequence (Q14524 whole entry): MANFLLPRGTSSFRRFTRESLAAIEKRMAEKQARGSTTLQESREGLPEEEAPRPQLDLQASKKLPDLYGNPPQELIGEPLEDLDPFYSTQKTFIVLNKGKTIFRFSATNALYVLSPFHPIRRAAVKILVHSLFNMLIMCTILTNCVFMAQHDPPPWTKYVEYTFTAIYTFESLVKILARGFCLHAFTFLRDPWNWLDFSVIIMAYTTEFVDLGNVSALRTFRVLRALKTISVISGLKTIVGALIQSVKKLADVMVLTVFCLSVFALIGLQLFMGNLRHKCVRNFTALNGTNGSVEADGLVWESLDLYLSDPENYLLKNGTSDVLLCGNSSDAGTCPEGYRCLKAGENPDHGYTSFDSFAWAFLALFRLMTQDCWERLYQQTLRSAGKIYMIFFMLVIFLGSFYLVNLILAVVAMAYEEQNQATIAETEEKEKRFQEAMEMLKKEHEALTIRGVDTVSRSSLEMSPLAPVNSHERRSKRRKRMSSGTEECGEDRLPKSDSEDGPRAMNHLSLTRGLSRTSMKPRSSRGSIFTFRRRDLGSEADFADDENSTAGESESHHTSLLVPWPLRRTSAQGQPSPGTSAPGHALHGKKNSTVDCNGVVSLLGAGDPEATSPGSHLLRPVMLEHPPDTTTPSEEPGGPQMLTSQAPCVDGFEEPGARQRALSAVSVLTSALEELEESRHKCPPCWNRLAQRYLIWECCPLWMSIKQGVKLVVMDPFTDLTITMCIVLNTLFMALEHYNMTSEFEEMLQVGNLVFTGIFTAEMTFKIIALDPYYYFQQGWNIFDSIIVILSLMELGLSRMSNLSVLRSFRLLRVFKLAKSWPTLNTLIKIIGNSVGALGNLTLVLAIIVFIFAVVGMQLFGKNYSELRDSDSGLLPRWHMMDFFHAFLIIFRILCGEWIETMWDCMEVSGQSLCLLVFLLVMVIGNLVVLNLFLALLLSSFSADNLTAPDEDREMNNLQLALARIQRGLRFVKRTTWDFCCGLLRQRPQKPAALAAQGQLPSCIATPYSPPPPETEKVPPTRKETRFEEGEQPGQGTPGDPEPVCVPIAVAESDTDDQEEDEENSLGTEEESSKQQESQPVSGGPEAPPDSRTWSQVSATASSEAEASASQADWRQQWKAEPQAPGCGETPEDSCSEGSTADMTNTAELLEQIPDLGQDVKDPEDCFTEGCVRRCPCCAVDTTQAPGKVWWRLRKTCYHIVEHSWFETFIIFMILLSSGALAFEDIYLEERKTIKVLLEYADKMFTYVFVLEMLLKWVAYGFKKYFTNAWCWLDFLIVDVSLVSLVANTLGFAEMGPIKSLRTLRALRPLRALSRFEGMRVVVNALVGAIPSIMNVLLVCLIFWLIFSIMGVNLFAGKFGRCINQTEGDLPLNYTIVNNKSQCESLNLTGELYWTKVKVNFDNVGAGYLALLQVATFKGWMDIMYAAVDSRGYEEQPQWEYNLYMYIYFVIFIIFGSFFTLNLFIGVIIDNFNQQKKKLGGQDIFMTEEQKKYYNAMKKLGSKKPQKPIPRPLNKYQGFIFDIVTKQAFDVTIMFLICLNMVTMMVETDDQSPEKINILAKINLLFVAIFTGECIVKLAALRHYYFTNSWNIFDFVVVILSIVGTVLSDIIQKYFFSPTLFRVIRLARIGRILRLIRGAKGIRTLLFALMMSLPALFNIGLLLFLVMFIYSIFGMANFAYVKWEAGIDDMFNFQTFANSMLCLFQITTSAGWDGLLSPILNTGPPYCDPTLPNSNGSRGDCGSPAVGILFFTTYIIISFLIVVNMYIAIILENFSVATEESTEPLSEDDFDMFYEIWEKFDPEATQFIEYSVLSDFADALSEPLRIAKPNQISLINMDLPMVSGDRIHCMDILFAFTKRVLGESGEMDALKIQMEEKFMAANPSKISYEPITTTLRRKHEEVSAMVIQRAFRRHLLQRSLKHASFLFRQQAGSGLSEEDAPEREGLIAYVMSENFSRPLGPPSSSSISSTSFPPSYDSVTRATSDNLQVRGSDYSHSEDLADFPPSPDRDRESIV
T1 sequence (Q15858 whole entry): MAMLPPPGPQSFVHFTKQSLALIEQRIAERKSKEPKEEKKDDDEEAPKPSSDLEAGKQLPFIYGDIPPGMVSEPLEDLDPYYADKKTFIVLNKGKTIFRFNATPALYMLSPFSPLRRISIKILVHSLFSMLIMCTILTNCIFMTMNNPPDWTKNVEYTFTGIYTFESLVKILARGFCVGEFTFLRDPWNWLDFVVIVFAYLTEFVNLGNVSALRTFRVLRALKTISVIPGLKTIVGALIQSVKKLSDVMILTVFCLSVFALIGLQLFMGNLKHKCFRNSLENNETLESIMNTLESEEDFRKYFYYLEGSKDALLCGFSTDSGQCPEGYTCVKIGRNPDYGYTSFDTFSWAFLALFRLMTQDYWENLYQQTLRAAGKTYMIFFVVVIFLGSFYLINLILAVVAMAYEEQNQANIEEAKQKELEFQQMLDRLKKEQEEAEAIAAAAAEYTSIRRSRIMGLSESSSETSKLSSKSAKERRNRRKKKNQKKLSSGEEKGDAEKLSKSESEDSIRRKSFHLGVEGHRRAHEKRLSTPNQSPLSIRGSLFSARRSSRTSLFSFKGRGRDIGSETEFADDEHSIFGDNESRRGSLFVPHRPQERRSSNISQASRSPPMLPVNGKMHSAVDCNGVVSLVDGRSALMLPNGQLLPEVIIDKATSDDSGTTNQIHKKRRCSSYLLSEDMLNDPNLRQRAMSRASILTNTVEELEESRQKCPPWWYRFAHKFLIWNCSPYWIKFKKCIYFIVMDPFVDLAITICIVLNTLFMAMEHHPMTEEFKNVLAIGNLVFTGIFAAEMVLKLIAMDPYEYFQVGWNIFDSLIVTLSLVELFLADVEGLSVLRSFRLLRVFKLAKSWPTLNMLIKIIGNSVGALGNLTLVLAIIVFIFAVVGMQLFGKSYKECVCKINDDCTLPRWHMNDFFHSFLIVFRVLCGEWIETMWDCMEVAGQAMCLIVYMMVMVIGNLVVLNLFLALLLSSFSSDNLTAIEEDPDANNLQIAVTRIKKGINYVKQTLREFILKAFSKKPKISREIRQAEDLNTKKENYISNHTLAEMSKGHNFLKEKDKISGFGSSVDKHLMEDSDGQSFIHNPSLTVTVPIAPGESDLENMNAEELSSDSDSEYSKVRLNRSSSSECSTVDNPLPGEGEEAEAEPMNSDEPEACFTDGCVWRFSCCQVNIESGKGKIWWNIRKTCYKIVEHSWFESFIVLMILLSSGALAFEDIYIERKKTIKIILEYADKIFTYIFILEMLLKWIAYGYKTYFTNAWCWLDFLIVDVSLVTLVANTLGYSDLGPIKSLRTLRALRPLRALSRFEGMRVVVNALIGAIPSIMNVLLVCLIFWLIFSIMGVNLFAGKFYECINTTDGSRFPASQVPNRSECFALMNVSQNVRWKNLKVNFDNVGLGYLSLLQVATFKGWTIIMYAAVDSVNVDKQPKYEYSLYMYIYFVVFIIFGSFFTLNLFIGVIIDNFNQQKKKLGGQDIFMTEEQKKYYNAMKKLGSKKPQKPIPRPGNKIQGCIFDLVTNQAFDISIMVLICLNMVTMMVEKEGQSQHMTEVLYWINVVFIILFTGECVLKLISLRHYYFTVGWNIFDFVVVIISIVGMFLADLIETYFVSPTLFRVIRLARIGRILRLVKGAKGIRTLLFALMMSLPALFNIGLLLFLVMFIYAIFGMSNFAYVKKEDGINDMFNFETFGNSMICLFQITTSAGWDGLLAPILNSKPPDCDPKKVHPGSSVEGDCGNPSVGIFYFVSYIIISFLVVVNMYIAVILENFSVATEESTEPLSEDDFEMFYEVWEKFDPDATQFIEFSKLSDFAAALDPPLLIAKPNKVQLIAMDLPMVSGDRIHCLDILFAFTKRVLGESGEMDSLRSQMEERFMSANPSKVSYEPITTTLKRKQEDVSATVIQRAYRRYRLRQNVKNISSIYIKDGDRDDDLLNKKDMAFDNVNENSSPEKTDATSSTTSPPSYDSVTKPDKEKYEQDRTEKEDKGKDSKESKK
T1 sequence (Q07699 19-218 partner): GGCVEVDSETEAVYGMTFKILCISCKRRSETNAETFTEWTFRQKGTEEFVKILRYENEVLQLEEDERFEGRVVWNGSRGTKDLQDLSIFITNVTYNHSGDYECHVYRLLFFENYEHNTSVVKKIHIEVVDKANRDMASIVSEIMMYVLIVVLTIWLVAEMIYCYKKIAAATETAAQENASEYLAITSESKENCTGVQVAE

As to `O=S(=O)(Nc1ncns1)c1cc(F)c(Oc2cc(N3CCC3)cc(C(F)(F)F)c2)cc1F` [Compound 48, 4-[3-(azetidin-1-yl)-5-(trifluoromethyl)phenoxy]-2,5-difluoro-N-(1,2,4-thiadiazol-5-yl)benzenesulfonamide], the IC50 was approximately 3060 nM against human Nav1.7 (hNav1.7) [1], approximately 6660 nM at human Nav1.5 (hNav1.5) [2], approximately 650 nM against human Nav1.5 (hNav1.5) [3] and 142 nM against human Nav1.7 (hNav1.7) [4].

As to `O=S(=O)(Nc1ncns1)c1cc(F)c(Oc2cc(N3CC(O)C3)cc(C(F)(F)F)c2)cc1F` [Compound 49, 2,5-difluoro-4-[3-(3-hydroxyazetidin-1-yl)-5-(trifluoromethyl)phenoxy]-N-(1,2,4-thiadiazol-5-yl)benzenesulfonamide], the IC50 at human Nav1.7 (hNav1.7) [1] was approximately 7680 nM; on human Nav1.5 (hNav1.5) [2], approximately 17200 nM; on human Nav1.5 (hNav1.5) [3], 1600 nM; on human Nav1.7 (hNav1.7) [4], 404 nM.

Consider `O=C(NCc1cccc(-c2cc(C(F)(F)F)cc(C(F)(F)F)c2)c1)[C@@H]1C[C@H](F)CN1` [Compound 52, (2S,4S)-N-((3′,5′-bis(trifluoromethyl)-[1,1′-biphenyl]-3-yl)methyl)-4-fluoropyrrolidine-2-carboxamide], for which the IC50 was determined as 4440 nM on human Nav1.7 (hNav1.7) [1]; 4050 nM at human Nav1.5 (hNav1.5) [2]; 928 nM against rat Nav1.2 (rNav1.2) [5]; 1040 nM against human Nav1.5 (hNav1.5) [3]; 466 nM at human Nav1.7 (hNav1.7) [4]; 5540 nM against rat Nav1.2 (rNav1.2) [6].

The record behind these values is US11236078B2, “Heterocyclic inhibitors of the sodium channel” (priority 2014, dated 2022).
